From paper PMC7139656, “The Landscape of the Anti-Kinase Activity of the IDH1 Inhibitors” (Cancers, 2020)

Key:
[1] = tested on: mutant IDH1 (2-HG production) in K562 cells; assay: Mutant IDH1 activity - D-2-hydroxyglutarate production in K562 cells; assay type: cell-based, human; details: 24-h incubation; for D-2-HG level after treatment (decrease to): 30 μM
Procedure: The K562 and U-251 cells were seeded in 3-cm Petri dishes (Nunc) at a density of 0.5 × 10^6 cells/well and incubated at 37 °C for 24 h. […] After a 24-h treatment, the assays were performed using a D-2-Hydroxyglutarate Assay Kit (Abcam) according to the manufacturer’s instructions. Briefly, 25 μL of each cell lysate was transferred onto 96-well plates. Internal and external standards (containing 1 mM D2HG) were also prepared. Then, a freshly prepared reaction mix containing D2HG Assay Buffer, D2HG Enzyme and D2HG Substrate Mix was added to each well. Reaction mixes with the cell lysates were incubated for 60 min at 37 °C in the dark. The optical densities of the samples were analyzed at 450 nm using a Synergy 4 multi-plate reader. The experiments were performed at least four times. The D-2-Hydroxyglutarate concentration is expressed as nM/μL.

ABL1 recombinant protein = tested on: ABL1 recombinant protein; set-up: method as in PMID 19679652; details: cited from earlier work
IDH1 R132H = details: cited from earlier work
Lyn B = molecular target: T1, Lyn B (Homo sapiens, UniProt P07948); assay: Tyrosine kinase inhibition in vitro (TK-2 panel, ADP-Glo); assay type: biochemical; details: for inhibition at 0.5 µM: compound at 0.5 μM, read-out: Inhibitory Effect of the Non-Receptor Tyrosine Kinase Activity, Lyn B
T1 construct: purchased Promega

U-251 = assay: Cytotoxicity / antiproliferative activity, MTS test; assay type: cell-based; details: Homo sapiens, 72-h incubation
Procedure: (§1) M. Rusin from the Maria Sklodowska-Curie Memorial Cancer Centre and Institute of Oncology in Gliwice, Poland. […] G. Kramer-Marek from The Institute of Cancer Research in London, United Kingdom. The pancreatic cell line PANC-1 and the human chronic myelogenous leukemia cell line K562 were purchased from Sigma-Aldrich. […] All of these cell lines were grown under standard conditions at 37 °C in a 5% CO2 humidified atmosphere. Prior to beginning the experiments, all of the cell lines were subjected to routine mycoplasma testing with specific Mycoplasma primers using the PCR technique.
(§2) The exponentially growing cells for all of the cell lines were seeded in 96-well plates (Nunc) at a density of 5000 cells/well and incubated at 37 °C for 24 h. The assay was performed following a 72-h incubation with the various concentrations of the compounds that were being tested. Then, 20 µL of CellTiter 96®AQueous One Solution-MTS (Promega) solution was added to each well (with 100 µL DMEM without phenol red) and incubated for 1 h at 37 °C. The optical densities of the samples were analyzed at 490 nm using a multi-plate reader (Synergy 4, BioTek). The results are expressed as the percentage of the control and were calculated as the inhibitory concentration (IC50) values using GraphPad Prism 7. Each individual compound was tested in triplicate in a single experiment with each experiment being repeated five times.

K562 = assay: as above; assay type: cell-based; details: Homo sapiens, 72-h incubation
Procedure: as §1, §2

PANC-1 = assay: as above; assay type: cell-based; details: Homo sapiens, 72-h incubation
Procedure: as §1, §2

HCT 116 p53-/- = assay: as above; assay type: cell-based; details: Homo sapiens, 72-h incubation
Procedure: as §1, §2

HCT 116 p53+/+ = assay: as above; assay type: cell-based; details: Homo sapiens, 72-h incubation
Procedure: as §1, §2

MCF-7 = assay: as above; assay type: cell-based; details: Homo sapiens, MCF7, 72-h incubation
Procedure: as §1, §2

CSK = molecular target: T2, CSK (Homo sapiens, UniProt P41240); assay: Tyrosine kinase inhibition in vitro (TK-2 panel, ADP-Glo); assay type: biochemical; details: compound at 0.5 μM; read-out: Inhibitory Effect of the Non-Receptor Tyrosine Kinase Activity, CSK
T2 construct: purchased Promega
Procedure: (§3) The inhibition of the tyrosine kinases by the tested compounds was measured using the Kinase Selectivity TK-2 Profiling Systems (Promega) as was previously reported. Briefly, the kinases (ABL1; BRK; BTK; CSK; Fyn A; Lck; Lyn B; Src) and substrate/co factor strips were prepared according to the manufacturer’s instructions. The compounds being tested were dissolved in DMSO to a concentration of 100 μM, which was then used as the stock solution to prepare the 0.5 μM final concentration in a 1x Kinase Reaction Buffer (40 mM Tris – pH 7.5; 20 mM MgCl2; 0.1 mg/mL BSA; 50 μM DTT). The experiment began with transferring 1 μl of the prepared solutions of the tested compounds onto a 384-well white plate that was designed for luminescence (Corning). Then, 2 μL of the kinases from the eight-well strip were added into each well and the plate was incubated for 10 min at room temperature (RT), after which 2 μL of the substrates from the eight-well substrate/co-factor strip were added to each well and the plate was left at RT for 1 h. Solutions of 1x Kinase Reaction Buffer with 5% vehicle (DMSO) were used as the negative controls without an inhibitor or enzymes. The activity of each kinase was determined using an ADP-Glo Kinase Assay (Promega). Firstly, in order to stop the reaction, 5 μL of ADP-Glo reagent was added to each well and the plate was incubated for 40 min at RT. Afterwards, 10 μL of the Kinase Detection Reagent was added to each well and the luminescence was measured in a Synergy 4 multi-plate reader following a 30-min incubation at RT. […] The data are expressed as the percentage of the inhibition of tyrosine kinase after treatment with the tested compounds.

BRK = molecular target: T3, BRK (Homo sapiens, UniProt Q13882); assay: as above; assay type: biochemical; details: compound at 0.5 μM; read-out: Inhibitory Effect of the Non-Receptor Tyrosine Kinase Activity, BRK
T3 construct: purchased Promega
Procedure: as §3

Fyn A = molecular target: T4, Fyn A (Homo sapiens, UniProt P06241); assay: as above; assay type: biochemical; details: for inhibition at 0.5 µM: compound at 0.5 μM, read-out: Inhibitory Effect of the Non-Receptor Tyrosine Kinase Activity, Fyn A
T4 construct: purchased Promega
Procedure: as §3

Lck = molecular target: T5, Lck (Homo sapiens, UniProt P06239); assay: as above; assay type: biochemical; details: compound at 0.5 μM; read-out: Inhibitory Effect of the Non-Receptor Tyrosine Kinase Activity, Lck
T5 construct: purchased Promega
Procedure: as §3

BTK = molecular target: T6, BTK (Homo sapiens, UniProt Q06187); assay: as above; assay type: biochemical; details: for inhibition at 0.5 µM: compound at 0.5 μM, read-out: Inhibitory Effect of the Non-Receptor Tyrosine Kinase Activity, BTK
T6 construct: purchased Promega
Procedure: as §3

Src = molecular target: T7, Src (Homo sapiens, UniProt P12931); assay: as above; assay type: biochemical; details: compound at 0.5 μM; read-out: Inhibitory Effect of the Non-Receptor Tyrosine Kinase Activity, Src
T7 construct: purchased Promega
Procedure: as §3

ABL1 native = molecular target: T8, ABL1 native (Homo sapiens, UniProt P00519); assay: Tyrosine kinase inhibition in vitro (Kinase Selectivity TK-2 Profiling System, ADP-Glo); assay type: biochemical; details: for inhibition at 0.5 µM: compound at 0.5 μM, read-out: Inhibitory Effect of the Non-Receptor Tyrosine Kinase Activity, ABL1 native
T8 construct: purchased Promega
Procedure: as §3

ABL1 T315I = molecular target: T9, ABL1 T315I (Homo sapiens, UniProt P00519, T315I); assay: ABL (T315I) Kinase Assay (ADP-Glo); assay type: biochemical; details: for inhibition at 0.5 µM: compound at 0.5 μM, read-out: Inhibitory Effect of the Non-Receptor Tyrosine Kinase Activity, ABL1 T315I
T9 construct: purchased Promega
Procedure: as §3
Briefly, the solutions of the compounds being tested at various concentrations were prepared in a 1x Kinase Reaction Buffer. Firstly, 1 μl of the solutions of the tested compounds or vehicle – 5% DMSO (as the control without an inhibitor) were added onto a 384-well low volume white plate. […] After 10 min of incubation at RT, 2 μL of the substrate/ATP mixture was added to each well and incubated for 1h at RT. The luminescence of the kinase activity after treatment with the tested compounds was measured using an ADP-Glo Kinase Assay as was described above. The experiments were performed three times and the results are presented as the IC50 values, which were calculated using GraphPad Prism 7.

ABL1 enzyme = ABL1 enzyme (Homo sapiens, UniProt P00519); assay: Pharmacological synergy on the ABL enzyme model (TOS inhibitors and axitinib, ABL1 Kinase Assay, Chou-Talalay); details: for Combination index [CI]: combination with axitinib, for Fa = 0.9, CI < 1 synergy, CompuSyn
Procedure: The experiments were performed at least three times. The synergy was calculated according to the Chou-Talay method (CompuSyn software) [33, 70]. Briefly, the concentration range was adjusted to cover the specified IC50 value against the ABL1 enzyme for each inhibitor.

wild-type IDH1 = details: cited from earlier work

T6 sequence (Q06187 whole entry): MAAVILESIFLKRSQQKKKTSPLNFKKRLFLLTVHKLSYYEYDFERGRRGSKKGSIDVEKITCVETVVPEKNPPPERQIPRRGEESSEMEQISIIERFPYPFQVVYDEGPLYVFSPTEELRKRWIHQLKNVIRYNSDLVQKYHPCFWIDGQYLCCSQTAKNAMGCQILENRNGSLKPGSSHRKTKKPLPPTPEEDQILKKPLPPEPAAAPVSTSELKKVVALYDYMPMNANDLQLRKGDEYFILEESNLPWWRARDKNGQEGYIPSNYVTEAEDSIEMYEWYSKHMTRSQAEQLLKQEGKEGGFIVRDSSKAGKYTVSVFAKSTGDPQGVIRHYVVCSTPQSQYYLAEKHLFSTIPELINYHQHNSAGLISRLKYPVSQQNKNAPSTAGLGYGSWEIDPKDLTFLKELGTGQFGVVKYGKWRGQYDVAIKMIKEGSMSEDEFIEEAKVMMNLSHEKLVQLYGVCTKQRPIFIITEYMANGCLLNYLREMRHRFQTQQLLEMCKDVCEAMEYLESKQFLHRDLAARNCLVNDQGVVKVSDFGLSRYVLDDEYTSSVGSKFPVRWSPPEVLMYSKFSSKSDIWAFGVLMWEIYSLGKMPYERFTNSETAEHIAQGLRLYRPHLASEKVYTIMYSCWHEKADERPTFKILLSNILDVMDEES
T4 sequence (P06241 whole entry): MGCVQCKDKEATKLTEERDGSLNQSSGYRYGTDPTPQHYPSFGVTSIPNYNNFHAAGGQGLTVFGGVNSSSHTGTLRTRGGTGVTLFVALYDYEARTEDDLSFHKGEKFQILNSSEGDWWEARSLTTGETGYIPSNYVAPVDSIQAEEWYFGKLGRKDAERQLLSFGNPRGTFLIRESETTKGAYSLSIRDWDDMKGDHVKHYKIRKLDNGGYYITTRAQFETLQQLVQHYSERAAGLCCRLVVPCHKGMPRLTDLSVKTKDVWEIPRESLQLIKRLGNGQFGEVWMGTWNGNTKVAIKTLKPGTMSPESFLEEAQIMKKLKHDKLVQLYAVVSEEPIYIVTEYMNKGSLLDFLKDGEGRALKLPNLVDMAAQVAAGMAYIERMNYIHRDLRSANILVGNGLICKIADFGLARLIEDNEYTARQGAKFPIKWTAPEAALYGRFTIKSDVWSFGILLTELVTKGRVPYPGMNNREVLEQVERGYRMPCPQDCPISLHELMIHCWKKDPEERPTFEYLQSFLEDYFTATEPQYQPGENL
T1 sequence (P07948 1-491 isoform P07948-2): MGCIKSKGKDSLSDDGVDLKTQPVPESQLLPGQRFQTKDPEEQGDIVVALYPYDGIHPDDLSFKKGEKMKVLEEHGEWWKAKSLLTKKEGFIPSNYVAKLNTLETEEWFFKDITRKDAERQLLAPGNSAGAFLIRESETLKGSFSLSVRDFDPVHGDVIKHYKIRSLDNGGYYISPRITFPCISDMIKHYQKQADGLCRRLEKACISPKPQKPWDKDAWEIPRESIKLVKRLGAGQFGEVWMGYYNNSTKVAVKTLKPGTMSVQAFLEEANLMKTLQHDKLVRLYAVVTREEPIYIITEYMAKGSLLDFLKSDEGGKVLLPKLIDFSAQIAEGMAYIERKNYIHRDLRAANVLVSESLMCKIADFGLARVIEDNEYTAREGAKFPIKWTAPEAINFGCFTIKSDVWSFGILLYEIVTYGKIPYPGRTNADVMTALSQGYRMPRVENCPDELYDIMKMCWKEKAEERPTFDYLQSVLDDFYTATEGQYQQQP
T5 sequence (P06239 whole entry): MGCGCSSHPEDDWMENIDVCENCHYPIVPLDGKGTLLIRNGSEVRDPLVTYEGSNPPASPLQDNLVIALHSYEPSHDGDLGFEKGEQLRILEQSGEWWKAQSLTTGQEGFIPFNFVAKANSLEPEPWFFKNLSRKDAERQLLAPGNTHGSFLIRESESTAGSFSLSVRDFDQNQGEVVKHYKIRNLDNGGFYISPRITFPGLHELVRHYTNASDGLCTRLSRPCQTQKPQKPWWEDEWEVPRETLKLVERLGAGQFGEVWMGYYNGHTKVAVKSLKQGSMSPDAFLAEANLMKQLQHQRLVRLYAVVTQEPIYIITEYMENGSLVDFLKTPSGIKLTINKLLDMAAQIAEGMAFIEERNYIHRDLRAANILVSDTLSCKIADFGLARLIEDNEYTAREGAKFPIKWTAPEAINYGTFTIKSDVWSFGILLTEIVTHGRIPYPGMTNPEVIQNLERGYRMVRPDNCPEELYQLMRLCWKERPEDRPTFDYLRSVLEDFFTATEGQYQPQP
T3 sequence (Q13882 whole entry): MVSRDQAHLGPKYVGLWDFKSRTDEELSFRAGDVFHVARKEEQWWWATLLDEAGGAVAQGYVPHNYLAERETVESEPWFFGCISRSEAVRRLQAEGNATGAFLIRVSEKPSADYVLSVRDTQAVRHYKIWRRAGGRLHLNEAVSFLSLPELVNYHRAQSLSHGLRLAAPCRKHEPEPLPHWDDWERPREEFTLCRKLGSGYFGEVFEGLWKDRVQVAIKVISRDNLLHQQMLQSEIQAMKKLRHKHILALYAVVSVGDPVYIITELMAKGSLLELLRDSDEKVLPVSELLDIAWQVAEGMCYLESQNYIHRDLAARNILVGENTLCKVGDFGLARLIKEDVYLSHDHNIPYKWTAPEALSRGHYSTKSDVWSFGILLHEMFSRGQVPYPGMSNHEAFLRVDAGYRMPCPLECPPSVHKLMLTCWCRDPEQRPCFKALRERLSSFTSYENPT
T7 sequence (P12931 whole entry): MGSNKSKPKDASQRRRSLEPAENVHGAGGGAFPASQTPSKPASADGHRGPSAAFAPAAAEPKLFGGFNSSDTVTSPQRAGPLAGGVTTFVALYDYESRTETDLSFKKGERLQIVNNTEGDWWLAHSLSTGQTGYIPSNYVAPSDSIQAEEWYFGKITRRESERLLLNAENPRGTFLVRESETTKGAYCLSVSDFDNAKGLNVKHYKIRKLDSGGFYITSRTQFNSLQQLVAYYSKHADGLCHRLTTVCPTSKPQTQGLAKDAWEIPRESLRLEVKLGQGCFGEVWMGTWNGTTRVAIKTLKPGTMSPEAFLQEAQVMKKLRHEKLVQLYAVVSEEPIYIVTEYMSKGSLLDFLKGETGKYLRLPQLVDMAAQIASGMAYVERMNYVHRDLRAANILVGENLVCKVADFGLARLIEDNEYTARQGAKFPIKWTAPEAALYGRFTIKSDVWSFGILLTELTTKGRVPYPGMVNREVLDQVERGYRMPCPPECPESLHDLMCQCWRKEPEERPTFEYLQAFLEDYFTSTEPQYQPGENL
T2 sequence (P41240 whole entry): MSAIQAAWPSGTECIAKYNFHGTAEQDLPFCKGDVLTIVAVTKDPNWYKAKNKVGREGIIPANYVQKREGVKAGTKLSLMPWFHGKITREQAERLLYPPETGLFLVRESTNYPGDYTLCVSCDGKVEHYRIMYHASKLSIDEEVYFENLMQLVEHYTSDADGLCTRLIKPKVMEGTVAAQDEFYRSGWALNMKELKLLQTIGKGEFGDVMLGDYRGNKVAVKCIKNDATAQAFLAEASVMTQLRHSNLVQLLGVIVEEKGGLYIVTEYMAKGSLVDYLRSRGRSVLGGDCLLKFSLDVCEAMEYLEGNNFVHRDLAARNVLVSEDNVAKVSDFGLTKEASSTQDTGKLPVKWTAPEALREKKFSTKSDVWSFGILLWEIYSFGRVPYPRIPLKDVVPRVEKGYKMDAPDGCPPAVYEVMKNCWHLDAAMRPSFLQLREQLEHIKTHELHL

SMILES | D-2-HG level after treatment (decrease to) [1] [%] | IC50 (Lyn B) [µM] | inhibition at 0.5 µM (Lyn B) [%] | IC50 (U-251) [µM] | IC50 (K562) [µM] | IC50 (PANC-1) [µM] | IC50 (HCT 116 p53-/-) [µM] | IC50 (HCT 116 p53+/+) [µM] | IC50 (MCF-7) [µM] | inhibition at 0.5 µM (CSK) [%] | inhibition at 0.5 µM (BRK) [%] | inhibition at 0.5 µM (Fyn A) [%] | inhibition at 0.5 µM (Lck) [%] | IC50 (BTK) [µM] | inhibition at 0.5 µM (BTK) [%] | inhibition at 0.5 µM (Src) [%] | IC50 (ABL1 native) [µM] | inhibition at 0.5 µM (ABL1 native) [%] | IC50 (ABL1 T315I) [µM] | inhibition at 0.5 µM (ABL1 T315I) [%] | also measured
CNC(=O)c1ccccc1Sc1ccc2c(/C=C/c3ccccn3)n[nH]c2c1 [Axitinib, axitinib, reference compound] | – | – | – | – | – | – | – | – | – | – | – | – | – | – | – | – | – | – | – | – | reduced level of 2-hydroxyglutarate ([1]; axitinib 0.5 μM): 46%
NC(=O)c1cccc(-c2cc(Nc3ccc(OC(F)(F)F)cc3)ncn2)c1 [GNF-2] | – | – | – | – | – | – | – | – | – | – | – | – | – | – | – | – | – | – | – | – | level of activity towards recombinant ABL1 protein (ABL1 recombinant protein): ~ 1 μM
C[C@H](O)c1cccc(NC(=O)c2nn(Cc3ccc(F)cc3)c3c2CN(C(=O)c2ccc[nH]2)C[C@H]3C)c1 [GSK-321] | – | – | – | – | – | – | – | – | – | – | – | – | – | – | – | – | – | – | – | – | inhibitory activity against IDH1 R132H in biochemical tests (IDH1 R132H): 4.6 nM
CCCCc1ccc(NS(=O)(=O)c2ccc(C)c(C(=O)N3CCN(c4ccccc4O)CC3)c2)cc1 [TOS-1, N-(4-butylphenyl)-3-[4-(2-hydroxyphenyl)piperazine-1-carbonyl]-4-methylbenzene-1-sulfonamide] | 24 | 5 | 0 | 27.59 ± 0.17 | 12.7 ± 3.2 | 25.2 ± 3.38 | 27.83 ± 0.17 | 24.7 ± 0.32 | 18.1 ± 1 | 38.4 ± 6.15 | 22.6 ± 0.94 | 29.9 ± 4.29 | 34.7 ± 2.51 | 4.94 | 32.3 ± 7.43 | 0 | 0.934 | 42.8 ± 8.46 | 5.02 | 29.3 ± 7.43 | IC50 (Fyn A): 4.15 µM; Fa (fraction affected), combination with axitinib (ABL1 enzyme; TOS-1 0.375 µM + axitinib 0.125 µM): 0.3787; Fa (fraction affected), combination with axitinib (ABL1 enzyme; TOS-1 0.625 µM + axitinib 0.25 µM): 0.4837; Fa (fraction affected), combination with axitinib (ABL1 enzyme; TOS-1 1.25 µM + axitinib 0.5 µM): 0.7204; Fa (fraction affected), combination with axitinib (ABL1 enzyme; TOS-1 2.5 µM + axitinib 1 µM): 0.8412; Combination index [CI] (ABL1 enzyme): 0.5; Fa (fraction affected), single agent (ABL1 enzyme; dose 0.375 µM): 0.1126; Fa (fraction affected), single agent (ABL1 enzyme; dose 0.625 µM): 0.4149; Fa (fraction affected), single agent (ABL1 enzyme; dose 1.25 µM): 0.559; Fa (fraction affected), single agent (ABL1 enzyme; dose 2.5 µM): 0.5863
CCCCc1ccc(NS(=O)(=O)c2ccc(C)c(C(=O)N3CCN(c4ccccc4OCCF)CC3)c2)cc1 [TOS-2, N-(4-butylphenyl)-3-{4-[2-(2-fluoroethoxy)phenyl]piperazine-1-carbonyl}-4-methylbenzene-1-sulfonamide] | 48 | 5 | 0 | > 30 | 17.3 ± 2.23 | 18.9 ± 0.42 | 28.9 ± 1.07 | 24.4 ± 0.82 | 15.6 ± 1.35 | 9.66 ± 3.59 | 0 | 19.6 ± 2.78 | 0 | 0.522 | 50.9 ± 1.87 | 13.8 ± 4.23 | 0.401 | 59.2 ± 8.12 | > 10 | 26.1 ± 6.61 | Fa (fraction affected), combination with axitinib (ABL1 enzyme; TOS-2 0.0625 µM + axitinib 0.0625 µM): 0.354; Fa (fraction affected), combination with axitinib (ABL1 enzyme; TOS-2 0.125 µM + axitinib 0.125 µM): 0.4632; Fa (fraction affected), combination with axitinib (ABL1 enzyme; TOS-2 0.25 µM + axitinib 0.25 µM): 0.6215; Fa (fraction affected), combination with axitinib (ABL1 enzyme; TOS-2 0.5 µM + axitinib 0.5 µM): 0.6852; Fa (fraction affected), combination with axitinib (ABL1 enzyme; TOS-2 1 µM + axitinib 1 µM): 0.8101; Combination index [CI] (ABL1 enzyme): 0.75; Fa (fraction affected), single agent (ABL1 enzyme; dose 0.0625 µM): 0.07245; Fa (fraction affected), single agent (ABL1 enzyme; dose 0.125 µM): 0.2475; Fa (fraction affected), single agent (ABL1 enzyme; dose 0.25 µM): 0.3737; Fa (fraction affected), single agent (ABL1 enzyme; dose 0.5 µM): 0.518; Fa (fraction affected), single agent (ABL1 enzyme; dose 1 µM): 0.638
N#Cc1ccnc(N2C(=O)CC[C@H]2C(=O)N(c2cncc(F)c2)[C@H](C(=O)NC2CC(F)(F)C2)c2ccccc2Cl)c1 [ivosidenib] | – | – | – | – | – | – | – | – | – | – | – | – | – | – | – | – | – | – | – | – | IC50 (wild-type IDH1): 0.024 µM; IC50 (IDH1 R132H; read-out: IC50 IDH1 mutant): 0.012 µM
